Our source for the IC50 values is US10745377B2, “Piperidine or piperazine linked imidazole and triazole derivatives and methods of use” (MERCK SHARP & DOHME CORP., priority 2013, dated 2020).

Type in all cases: biochemical
For one test, the target named is T1, CYP2C9 (Homo sapiens, UniProt P11712).
T1 construct: 0.1 mg/mL protein human liver microsomes (BD Gentest); tissue BD Gentest; host or cells: human liver microsomes
The experiment in a line: Cocktail assay for CYPs in human liver microsomes: CYP2C9 (diclofenac 4′-hydroxylation). To be noted: human liver microsomes 0.1 mg/mL, 5 μM diclofenac, 10 min at 37° C., 6 concentrations up to 10 μM; read-out: IC50 (nM) CYP2C9. On the technique in general: Liver microsomes are vesicles of endoplasmic reticulum, rich in cytochrome P450 enzymes.

A further test addresses T2, CYP1A2 (Homo sapiens, UniProt P05177).
T2 construct: 0.1 mg/mL protein human liver microsomes (BD Gentest); tissue BD Gentest; host or cells: human liver microsomes
T2 sequence (P05177 1-516): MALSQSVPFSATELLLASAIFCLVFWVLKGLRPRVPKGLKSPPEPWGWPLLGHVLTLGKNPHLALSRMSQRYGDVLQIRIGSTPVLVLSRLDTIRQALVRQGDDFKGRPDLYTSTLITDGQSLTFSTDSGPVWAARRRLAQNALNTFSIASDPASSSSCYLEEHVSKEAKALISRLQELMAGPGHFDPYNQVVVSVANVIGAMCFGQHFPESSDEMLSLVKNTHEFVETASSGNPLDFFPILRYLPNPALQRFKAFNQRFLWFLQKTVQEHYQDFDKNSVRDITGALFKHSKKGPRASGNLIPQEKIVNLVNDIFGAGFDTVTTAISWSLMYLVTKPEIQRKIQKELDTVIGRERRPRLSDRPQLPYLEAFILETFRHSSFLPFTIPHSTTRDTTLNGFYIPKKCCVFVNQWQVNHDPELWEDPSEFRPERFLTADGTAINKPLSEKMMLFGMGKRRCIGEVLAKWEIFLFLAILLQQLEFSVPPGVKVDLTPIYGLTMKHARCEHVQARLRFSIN
The test can be described thus: Cocktail assay for CYPs in human liver microsomes: CYP1A2 (phenacetin O-deethylation). To be noted: human liver microsomes 0.1 mg/mL, 10 μM phenacetin, 10 min at 37° C., 6 concentrations up to 10 μM; read-out: IC50 (nM) CYP1A2.

In a further test the target is T3, CYP3A4 (Homo sapiens, UniProt P08684).
T3 construct: 0.1 mg/mL protein human liver microsomes (BD Gentest); tissue BD Gentest; host or cells: human liver microsomes
The test can be described thus: Cocktail assay for CYPs in human liver microsomes: CYP3A4 (midazolam 1′-hydroxylation). To be noted: human liver microsomes 0.1 mg/mL, 2 μM midazolam, 10 min at 37° C., 6 concentrations up to 10 μM; read-out: IC50 (nM) CYP3A4.

The target in a further test is T4, CYP2D6 (Homo sapiens, UniProt P10635).
T4 construct: 0.1 mg/mL protein human liver microsomes (BD Gentest); tissue BD Gentest; host or cells: human liver microsomes
The experiment in a line: Cocktail assay for CYPs in human liver microsomes: CYP2D6 (dextromethorphan O-demethylation). To be noted: human liver microsomes 0.1 mg/mL, 5 μM dextromethorphan, 10 min at 37° C., 6 concentrations up to 10 μM; read-out: IC50 (nM) CYP2D6.

A further test addresses T5, CYP2C19 (Homo sapiens, UniProt P33261).
T5 construct: 0.1 mg/mL protein human liver microsomes (BD Gentest); tissue BD Gentest; host or cells: human liver microsomes
The experiment in a line: Cocktail assay for CYPs in human liver microsomes: CYP2C19 (mephenytoin 4′-hydroxylation). To be noted: human liver microsomes 0.1 mg/mL, 30 μM mephenytoin, 10 min at 37° C., 6 concentrations up to 10 μM; read-out: IC50 (nM) CYP2C19.

A word on the IC50: it is the concentration that gives 50% inhibition.

T4 sequence (P10635 whole entry): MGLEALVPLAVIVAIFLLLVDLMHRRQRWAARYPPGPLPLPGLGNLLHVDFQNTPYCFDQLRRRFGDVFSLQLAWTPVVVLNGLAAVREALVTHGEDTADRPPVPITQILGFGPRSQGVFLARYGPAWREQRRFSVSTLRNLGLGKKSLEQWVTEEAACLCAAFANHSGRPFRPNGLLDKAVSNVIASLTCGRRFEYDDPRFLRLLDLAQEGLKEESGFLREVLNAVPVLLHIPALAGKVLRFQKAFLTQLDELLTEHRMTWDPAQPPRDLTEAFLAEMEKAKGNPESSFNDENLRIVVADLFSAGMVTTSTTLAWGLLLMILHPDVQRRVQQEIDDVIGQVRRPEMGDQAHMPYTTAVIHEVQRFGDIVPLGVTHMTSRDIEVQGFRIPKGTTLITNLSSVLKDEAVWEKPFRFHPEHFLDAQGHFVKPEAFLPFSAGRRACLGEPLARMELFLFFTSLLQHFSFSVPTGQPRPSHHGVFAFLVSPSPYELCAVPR
T3 sequence (P08684 whole entry): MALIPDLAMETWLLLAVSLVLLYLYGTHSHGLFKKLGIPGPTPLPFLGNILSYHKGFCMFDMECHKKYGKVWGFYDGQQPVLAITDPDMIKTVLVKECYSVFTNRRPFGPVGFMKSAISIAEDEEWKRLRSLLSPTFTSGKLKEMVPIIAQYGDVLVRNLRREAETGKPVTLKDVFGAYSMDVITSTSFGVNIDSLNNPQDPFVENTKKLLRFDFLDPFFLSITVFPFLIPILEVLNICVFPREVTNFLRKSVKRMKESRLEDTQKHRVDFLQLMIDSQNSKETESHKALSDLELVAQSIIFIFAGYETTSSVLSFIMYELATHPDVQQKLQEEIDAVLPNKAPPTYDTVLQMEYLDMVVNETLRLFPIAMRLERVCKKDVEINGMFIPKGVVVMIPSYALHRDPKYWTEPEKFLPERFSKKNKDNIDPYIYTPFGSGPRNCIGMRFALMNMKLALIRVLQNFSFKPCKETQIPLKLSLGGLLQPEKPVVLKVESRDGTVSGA
T5 sequence (P33261 whole entry): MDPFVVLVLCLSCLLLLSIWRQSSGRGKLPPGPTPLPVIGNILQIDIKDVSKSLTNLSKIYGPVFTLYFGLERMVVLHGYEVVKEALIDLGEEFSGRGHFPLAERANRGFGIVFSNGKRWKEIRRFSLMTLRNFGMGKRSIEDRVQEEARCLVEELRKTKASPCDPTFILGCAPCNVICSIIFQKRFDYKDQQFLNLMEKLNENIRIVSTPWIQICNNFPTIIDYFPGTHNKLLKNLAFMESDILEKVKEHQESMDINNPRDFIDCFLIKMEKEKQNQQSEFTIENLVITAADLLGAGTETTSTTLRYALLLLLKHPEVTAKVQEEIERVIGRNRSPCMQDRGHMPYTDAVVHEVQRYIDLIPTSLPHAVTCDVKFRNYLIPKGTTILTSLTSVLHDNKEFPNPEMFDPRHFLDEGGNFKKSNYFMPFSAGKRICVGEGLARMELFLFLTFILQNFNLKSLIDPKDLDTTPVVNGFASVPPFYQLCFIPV
T1 sequence (P11712 whole entry): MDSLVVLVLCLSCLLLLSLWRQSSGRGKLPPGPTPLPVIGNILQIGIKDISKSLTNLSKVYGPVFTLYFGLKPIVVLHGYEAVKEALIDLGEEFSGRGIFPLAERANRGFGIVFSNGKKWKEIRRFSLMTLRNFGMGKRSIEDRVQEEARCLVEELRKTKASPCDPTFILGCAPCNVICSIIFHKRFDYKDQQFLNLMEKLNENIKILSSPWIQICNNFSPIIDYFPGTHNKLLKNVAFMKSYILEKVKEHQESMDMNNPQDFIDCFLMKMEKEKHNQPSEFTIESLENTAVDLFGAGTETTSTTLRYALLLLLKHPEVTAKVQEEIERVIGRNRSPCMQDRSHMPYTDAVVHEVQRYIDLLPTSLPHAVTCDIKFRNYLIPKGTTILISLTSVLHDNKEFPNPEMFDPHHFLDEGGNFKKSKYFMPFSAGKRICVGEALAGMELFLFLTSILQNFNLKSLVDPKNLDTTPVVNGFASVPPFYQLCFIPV
Description for CYP1A2: (§1) Determination of IC50 in a Cocktail Assay for CYPs 1A2, 2C9, 2C19, 2D6 and 3A4
(§2) This assay was performed in a standard 96-well plate design. […] The incubation substrate mix contains 10 μM phenacetin (1A2), 5 μM diclofenac (2C9), 30 μM mephenytoin (2C19), 5 μM dextromethorphan (2D6) and 2 μM midazolam (3A4), 0.1 mg/mL protein human liver microsomes (BD Gentest), 1 mM NAPDH, 3.3 mM MgCl2 and 100 mM potassium phosphate buffer (pH 7.4). The production of the metabolite of each probe substrate was determined after incubation for 10 min at 37° C. Quantitation of the metabolite peak area ratio against an internal standard (tolbutamide) was determined by LC/MS/MS analysis following acetonitrile treatment of the incubations.
(§3) Samples were analyzed in the MRM mode with a SCIEX API-4000 mass spectrometer (Applied Biosystems, Foster City, Calif.), with a Shimadzu LC-20 AD pump (Shimadzu corporation, Kyoto, JP) and a CTC PAL autosampler (Agilent Technologies, Switzerland). A Phenomenex, Luna, 5 μm, 100 A, 2.00×30 mm HPLC column was used for the separation. The mobile phases were: (A) 0.1% formic acid in water and (B) 0.1% formic acid in acetonitrile. The binary gradient was as follows.
(§4) The mass spectrum parameters were as follows:
(§5) The LC/MS/MS parameters for the analytes were as follows.
(§6) The peak area ratio of the analyte to the internal standard was used to quantify the metabolite. The values of peak area ratios in the presence of test compound were compared to those of maximum or minimum controls and were expressed as % inhibition by interpolating between the maximum and minimum peak area ratios. Incubations with no inhibitor were defined as the maxima.
(§7) The following equation was used to calculate the % inhibition: [1−[(X−Low control)/(High control−Low control)]]*100
(§8) For the IC50 calculation, SigmaPlot was used to plot the mean % inhibition versus the test compound concentrations and for non-linear regression analysis of the data. Depending on the range of data points defining the inhibition curve, the data may have been fit to the 4-parameter logistic equation.
Description for CYP2C9: as §1, §2, §3, §4, §5, §6, §7, §8
Description for CYP2D6: as §1, §2, §3, §4, §5, §6, §7, §8
Description for CYP3A4: as §1, §2, §3, §4, §5, §6, §7, §8

For `C[C@H](c1ccc(C#N)cc1)n1cncc1CN1CCN(c2ccccc2)C(C(=O)N2CCC(F)(F)CC2)C1` (stereo partly drawn) [Compound 47, 4-((1R)-1-(5-((3-(4,4-difluoropiperidine-1-carbonyl)-4-phenylpiperazin-1-yl)methyl)-1H-imidazol-1-yl)ethyl) benzonitrile], the IC50 was 9270 nM on CYP2C9; over 10000 nM at CYP1A2; 20 nM at CYP3A4; over 10000 nM on CYP2D6; 7830 nM on CYP2C19.

As to `C[C@H](c1ccc(F)cc1)n1cncc1CN1CCN(c2ccccc2)[C@H](C(=O)N2CCCCC2)C1` [Compound 48], the IC50 at CYP2C9 was 1470 nM; at CYP1A2, over 10000 nM; on CYP3A4, 31 nM; at CYP2D6 it was 4890 nM; on CYP2C19, 2000 nM.

As for `Cc1cc(C(=O)N2CCN(Cc3cncn3[C@H](C)c3ccc(F)cc3)CC2c2ccccc2)no1` (stereo partly drawn) [Compound 49, (4-((1-((R)-1-(4-fluorophenyl)ethyl)-1H-imidazol-5-yl)methyl)-2-phenylpiperazin-1-yl)(5-methylisoxazol-3-yl)methanone], the 50% inhibitory concentration (IC50) at CYP2C9 was 1810 nM; at CYP1A2, over 10000 nM; at CYP3A4, 14 nM; at CYP2D6, over 10000 nM; on CYP2C19 it was 2110 nM.

For the molecule `CC(=O)N1CCN(Cc2cncn2[C@H](C)c2ccc(F)cc2)CC1c1ccccc1` (stereo partly drawn) [Compound 51, 1-(4-((1-((R)-1-(4-fluorophenyl)ethyl)-1H-imidazol-5-yl)methyl)-2-phenylpiperazin-1-yl)ethanone], the concentration for half-maximal inhibition (IC50) on CYP2C9 was over 10000 nM; at CYP1A2, over 10000 nM; at CYP3A4, 22 nM; at CYP2D6, over 10000 nM; at CYP2C19 it was over 10000 nM.

For `C[C@H](c1ccc(F)cc1)n1cncc1CN1CCN(C(=O)c2ccccn2)C(c2ccccc2)C1` (some centres unmarked) [Compound 53], the IC50 was 6120 nM on CYP2C9; over 10000 nM on CYP1A2; 13 nM at CYP3A4; 9840 nM on CYP2D6; over 10000 nM on CYP2C19.

On to `CC1CN(Cc2cncn2[C@H](C)c2ccc(F)cc2)CC(C)N1C(=O)C1(C)CC1` (stereo partly drawn) [Compound 54, (4-((1-((R)-1-(4-fluorophenyl)ethyl)-1H-imidazol-5-yl)methyl)-2,6-dimethylpiperazin-1-yl)(1-methylcyclopropyl) methanone], for which the IC50 was 2860 nM on CYP2C9; over 10000 nM on CYP1A2; 14 nM on CYP3A4; over 10000 nM on CYP2D6; 3350 nM at CYP2C19.

For the molecule `C[C@H](c1ccc(F)cc1)n1cncc1CN1CCN(C(=O)c2ccccc2)C(C(C)(C)C)C1` (stereo partly drawn) [Compound 55, (2-(tert-butyl)-4-((1-((R)-1-(4-fluorophenyl)ethyl)-1H-imidazol-5-yl)methyl)piperazin-1-yl)(phenyl) methanone], the IC50 is 2970 nM at CYP2C9; over 10000 nM on CYP1A2; 10 nM on CYP3A4; 8030 nM at CYP2D6; 2390 nM on CYP2C19.

Regarding `CC1CN(Cc2cncn2C(C)C2CCOCC2)CC(C)N1C(=O)C1(C)CC1` (centres unmarked) [Compound 56, (2,6-dimethyl-4-((1-(1-(tetrahydro-2H-pyran-4-yl)ethyl)-1H-imidazol-5-yl)methyl)piperazin-1-yl)(1-methylcyclopropyl) methanone], the IC50 is over 10000 nM at CYP2C9; over 10000 nM at CYP1A2; 35 nM at CYP3A4; 7160 nM on CYP2D6; over 10000 nM at CYP2C19.

On to `C[C@H](c1ccc(F)cc1)n1cncc1CN1CCN(C(=O)C2(C)CC2)C(c2ccc(N(C)C)cc2)C1` (stereo partly drawn) [Compound 57, (2-(4-(dimethylamino)phenyl)-4-((1-((R)-1-(4-fluorophenyl)ethyl)-1H-imidazol-5-yl)methyl)piperazin-1-yl)(1-methylcyclopropyl) methanone], for which the 50% inhibitory concentration (IC50) on CYP2C9 was 2810 nM; on CYP1A2, over 10000 nM; on CYP3A4 it was 5 nM; at CYP2D6, 2450 nM; on CYP2C19, 2640 nM.

As for `CC1CN(Cc2cncn2[C@H](C)c2ccc(C#N)cc2)CC(C)N1C(=O)C1CC(F)(F)C1` (stereo partly drawn) [Compound 58, 4-((1R)-1-(5-((4-(3,3-difluorocyclo-butanecarbonyl)-3,5-dimethylpiperazin-1-yl)methyl)-1H-imidazol-1-yl)ethyl)benzonitrile], the IC50 on CYP2C9 is 2570 nM; at CYP1A2 it was over 10000 nM; at CYP3A4, 7 nM; on CYP2D6, over 10000 nM; on CYP2C19 it was over 10000 nM.

With `CC(c1ccccc1-c1ccc(F)cc1)n1cncc1CN1CCN(C(=O)c2ccccc2)CC1` (centres unmarked) [Compound 59, (4-((1-(1-(4′-fluoro-[1,1′-biphenyl]-2-yl)ethyl)-1H-imidazol-5-yl)methyl)piperazin-1-yl)(phenyl) methanone], the IC50 on CYP2C9 is 6480 nM; at CYP1A2, over 10000 nM; at CYP3A4 it was 9 nM; on CYP2D6 it was 2210 nM; at CYP2C19 it was 3360 nM.

On to `CC(=O)N1CCN(Cc2cncn2C(C)c2ccccc2-c2ccc(F)cc2)CC1` (centres unmarked) [Compound 60, 1-(4-((1-(1-(4′-fluoro-[1,1′-biphenyl]-2-yl)ethyl)-1H-imidazol-5-yl)methyl)piperazin-1-yl)ethanone], for which the IC50 was over 10000 nM on CYP2C9; over 10000 nM at CYP1A2; 23 nM at CYP3A4; 4500 nM at CYP2D6; over 10000 nM at CYP2C19.

Take `C[C@H](c1ccc(F)cc1)n1cncc1CN1CCN(Cc2ccccc2)C(=O)C1` [Compound 61, (R)-1-benzyl-4-((1-(1-(4-fluorophenyl)ethyl)-1H-imidazol-5-yl)methyl)piperazin-2-one]: the IC50 was over 10000 nM on CYP2C9; over 10000 nM on CYP1A2; 23 nM on CYP3A4; 2520 nM at CYP2D6; 1620 nM at CYP2C19.

In the case of `C[C@H](c1ccc(F)cc1)n1cncc1CN1CCN(Cc2ccccc2Cn2cncn2)C(=O)C1` [Compound 62, (R)-1-(2-((1H-1,2,4-triazol-1-yl)methyl)benzyl)-4-((1-(1-(4-fluorophenyl)ethyl)-1H-imidazol-5-yl)methyl) piperazin-2-one], the IC50 on CYP2C9 was found to be 6210 nM; at CYP1A2 it was 6940 nM; at CYP3A4, 43 nM; at CYP2D6, 5640 nM; at CYP2C19 it was 1140 nM.

As to `C[C@H](c1ccc(F)cc1)n1cncc1CN1CCN(Cc2cn3ccccc3n2)C(=O)C1` [Compound 63, (R)-4-((1-(1-(4-fluorophenyl)ethyl)-1H-imidazol-5-yl)methyl)-1-(imidazo[1,2-a]pyridin-2-ylmethyl)piperazin-2-one], the half-inhibitory concentration (IC50) was over 10000 nM on CYP2C9; at least 10000 nM at CYP1A2; 46 nM on CYP3A4; over 10000 nM on CYP2D6; over 10000 nM at CYP2C19.

On to `COc1ccc(-c2nc(CN3CCN(Cc4cncn4[C@H](C)c4ccc(F)cc4)CC3=O)no2)cc1` [Compound 64, (R)-4-((1-(1-(4-fluorophenyl)ethyl)-1H-imidazol-5-yl)methyl)-1-((5-(4-methoxyphenyl)-1,2,4-oxadiazol-3-yl)methyl) piperazin-2-one], for which the half-maximal inhibitory concentration (IC50) amounted to 2860 nM at CYP2C9; 3590 nM on CYP1A2; 43 nM on CYP3A4; 3110 nM at CYP2D6; 4520 nM at CYP2C19.
